Here are results for 42 compounds from ChEMBL document CHEMBL1141080, “Discovery of potent orally active thrombin receptor (protease activated receptor 1) antagonists as novel antithrombotic agents” (J Med Chem, 2005).

Data set [1] has as its target T1, Proteinase-activated receptor 1 (Homo sapiens, UniProt P25116).
T1 sequence (P25116 whole entry): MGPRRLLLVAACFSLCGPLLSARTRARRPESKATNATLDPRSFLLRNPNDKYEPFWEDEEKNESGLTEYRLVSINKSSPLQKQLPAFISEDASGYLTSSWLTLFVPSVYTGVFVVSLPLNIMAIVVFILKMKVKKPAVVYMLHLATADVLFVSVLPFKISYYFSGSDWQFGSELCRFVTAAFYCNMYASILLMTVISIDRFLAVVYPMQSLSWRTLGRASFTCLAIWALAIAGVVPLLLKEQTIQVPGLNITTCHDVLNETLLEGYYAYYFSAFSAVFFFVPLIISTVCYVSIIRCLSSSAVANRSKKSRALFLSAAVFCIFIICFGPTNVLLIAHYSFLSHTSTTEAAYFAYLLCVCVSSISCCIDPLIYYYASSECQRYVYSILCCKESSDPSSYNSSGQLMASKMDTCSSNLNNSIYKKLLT
Description: (§1) In vitro inhibitory concentration against human protease activated receptor 1 using [3H]-haTRAP as radioligand

Data set [2] in a line: Area under curve after oral administration to rats in 20% hydroxypropyl-beta-cyclodextrin after 4 hours. As to conditions: rat, in vivo.
The nature of data set [3]: Maximum plasma concentration after oral administration to rats in 20% hydroxypropyl-beta-cyclodextrin after 4 hours. As to conditions: rat.
For data set [4], the target named is T1, Proteinase-activated receptor 1. This is another data set of the same source.
Description: as §1
The nature of data set [5]: Bioavailability of compound upon oral administration in rat. In kind it is ADME, organism-based. The following applies: in vivo.
The nature of data set [6]: Half life of compound upon iv administration in rat. Format: ADME, organism-based. As to conditions: in vivo.
Data set [7] can be described thus: Bioavailability of compound after oral administration in monkey. As to conditions: cercopithecidae, in vivo.
Data set [8] is described as follows: Bioavailability of compound after oral administration in rat at a dose of 10 mg/kg. In kind it is ADME, organism-based. As to conditions: in vivo.
Data set [9] is described as follows: Half life upon intravenous administration in rat. Format: ADME, organism-based. The following applies: in vivo.
The nature of data set [10]: Half life after intravenous administration in monkey. Format: ADME, organism-based. The following applies: cercopithecidae, in vivo.
Data set [11] is described as follows: Maximum plasma concentration upon oral administration in rat.

Turning to `Cc1cccc(-c2ccc(/C=C/[C@H]3[C@@H]4CCCC[C@H]4C[C@H]4C(=O)O[C@H](C)[C@@H]34)nc2)c1`, the IC50 (usually the midpoint of a concentration-inhibition curve) in data set [1] stood at 13 nM. Further, the AUC (in general, the area under the concentration-time curve, a measure of exposure) at 4 h in [2] worked out at 0.331 µM·h. Also, the highest level in data set [3] (Cmax) was 380 nM.

`C[C@H]1OC(=O)[C@@H]2C[C@@H]3CCCC[C@H]3[C@H](/C=C/c3ccc(-c4ccccc4F)cn3)[C@H]12` returned a concentration for half-maximal inhibition (IC50) in [1] of 22 nM. In data set [2], the AUC at 4 h turned out to be 2.47 µM·h. For the same compound, the Cmax (usually the peak of the concentration-time curve) in [3] turned out to be 1080 nM.

In data set [1], `C[C@H]1OC(=O)[C@@H]2C[C@@H]3CCCC[C@H]3[C@H](/C=C/c3ccc(-c4cccc(F)c4)cn3)[C@H]12` displayed an IC50 of 35 nM. In data set [2], this compound registered an AUC at 4 h of 3.55 µM·h. In [3], this compound registered a maximum concentration (Cmax) of 1520 nM.

For `Cc1ccccc1-c1ccc(/C=C/[C@H]2[C@@H]3CCCC[C@H]3C[C@H]3C(=O)O[C@H](C)[C@@H]23)nc1`, the AUC at 4 h in data set [2] was determined as 2.81 µM·h. The same compound registered a Cmax in [3] of 1220 nM.

On to `Cc1cccnc1/C=C/[C@H]1[C@@H]2CCCC[C@H]2C[C@H]2C(=O)O[C@H](C)[C@@H]12` (racemic), for which the IC50 in [1] is > 5000 nM.

The compound `COc1cccc(-c2ccc(/C=C/[C@H]3[C@@H]4CCCC[C@H]4C[C@H]4C(=O)O[C@H](C)[C@@H]34)nc2)c1` yielded an IC50 in data set [1] of 28 nM. The compound also showed an area under the curve (AUC) at 4 h in [2] of 0.012 µM·h. The compound further showed a Cmax in data set [3] of 20 nM.

For the compound `CCCCCCc1cccc(/C=C/[C@H]2[C@@H]3CCCC[C@H]3C[C@H]3C(=O)O[C@H](C)[C@@H]23)n1` (racemic), in data set [1], the IC50 came to 3500 nM.

As for `CC(C)c1cccc(-c2ccc(/C=C/[C@H]3[C@@H]4CCCC[C@H]4C[C@H]4C(=O)O[C@H](C)[C@@H]34)nc2)c1`, in data set [1], inhibition was half-maximal at 19 nM (IC50). The same compound displayed an AUC at 4 h in data set [2] of 0.258 µM·h. The compound further displayed a Cmax in data set [3] of 289 nM.

In the case of `COc1cccc(/C=C/[C@H]2[C@@H]3CCCC[C@H]3C[C@H]3C(=O)O[C@H](C)[C@@H]23)n1` (racemic), the 50% inhibitory concentration (IC50) entry in data set [4] is reported as “Not Active”.

Consider `C[C@H]1OC(=O)[C@@H]2C[C@@H]3CCCC[C@H]3[C@H](/C=C/c3ccc(OCc4ccccc4)cn3)[C@H]12` (racemic), for which half-maximal inhibition in [1] (IC50) required 19 nM.

As to `CCc1cccc(/C=C/[C@H]2[C@@H]3CCCC[C@H]3C[C@H]3C(=O)O[C@H](C)[C@@H]23)n1`, the bioavailability (commonly dose-corrected exposure relative to a reference, in per cent) in [5] is < 3%. For the same compound, in [6], the half-life – broadly, the time needed for the level to fall by half in the phase considered – was < 1 h.

Turning to `C[C@H]1OC(=O)[C@@H]2C[C@@H]3CCCC[C@H]3[C@H](/C=C/c3cccc(C4CC4)n3)[C@H]12` (racemic), half-maximal inhibition in data set [1] (IC50) was put at 210 nM.

`CC(C)c1cccc(/C=C/[C@H]2[C@@H]3CCCC[C@H]3C[C@H]3C(=O)O[C@H](C)[C@@H]23)n1` (racemic) registered an IC50 in data set [1] of 725 nM.

In data set [1], `C[C@H]1OC(=O)[C@@H]2C[C@@H]3CCCC[C@H]3[C@H](/C=C/c3ccc(-c4cccc(S(N)(=O)=O)c4)cn3)[C@H]12` yielded a 50% inhibitory concentration (IC50) of 100 nM.

In data set [1], `COc1ccccc1-c1ccc(/C=C/[C@H]2[C@@H]3CCCC[C@H]3C[C@H]3C(=O)O[C@H](C)[C@@H]23)nc1` showed a half-inhibitory concentration (IC50) of 11 nM. In data set [2], the area under the curve (AUC) at 4 h turned out to be 0.413 µM·h. In data set [3], this compound gave a Cmax of 419 nM.

For `CCCCc1cccc(/C=C/[C@H]2[C@@H]3CCCC[C@H]3C[C@H]3C(=O)O[C@H](C)[C@@H]23)n1` (racemic), the half-maximal inhibitory concentration (IC50) in [1] was determined as 143 nM.

Turning to `C[C@H]1OC(=O)[C@@H]2C[C@@H]3CCCC[C@H]3[C@H](/C=C/c3ccc(-c4ccc(C(F)(F)F)cc4)cn3)[C@H]12` (racemic), the IC50 in data set [1] was > 300 nM.

In the case of `C[C@H]1OC(=O)[C@@H]2C[C@@H]3CCCC[C@H]3[C@H](/C=C/c3ccc(Cc4ccccc4)cn3)[C@H]12` (racemic), the half-inhibitory concentration (IC50) in data set [1] is 3680 nM.

The compound `C[C@H]1OC(=O)[C@@H]2C[C@@H]3CCCC[C@H]3[C@H](/C=C/c3ccc(-c4cccc(Cl)c4)cn3)[C@H]12` came in with a concentration for half-maximal inhibition (IC50) in data set [1] of 10 nM. Also, the AUC at 4 h in [2] stood at 4.11 µM·h. Moreover, the Cmax in data set [3] came out at 1460 nM.

For `C[C@H]1OC(=O)[C@@H]2C[C@@H]3CCCC[C@H]3[C@H](/C=C/c3ccccn3)[C@H]12` (racemic), in data set [1], the 50% inhibitory concentration (IC50) was 4000 nM.

In the case of `C=Cc1cccc(/C=C/[C@H]2[C@@H]3CCCC[C@H]3C[C@H]3C(=O)O[C@H](C)[C@@H]23)n1` (racemic), in [1], 150 nM corresponded to half-maximal inhibition (IC50).

The compound `Cc1ccc(-c2ccc(/C=C/[C@H]3[C@@H]4CCCC[C@H]4C[C@H]4C(=O)O[C@H](C)[C@@H]34)nc2)cc1` (racemic) registered an IC50 in data set [1] of 325 nM.

Regarding `CNc1cccc(/C=C/[C@H]2[C@@H]3CCCC[C@H]3C[C@H]3C(=O)O[C@H](C)[C@@H]23)n1` (racemic), the half-inhibitory concentration (IC50) in data set [1] was 1250 nM.

As to `Cc1ccc(/C=C/[C@H]2[C@@H]3CCCC[C@H]3C[C@H]3C(=O)O[C@H](C)[C@@H]23)nc1` (racemic), in data set [1], the IC50 stood at 1100 nM.

As for `CC(C)Cc1cccc(/C=C/[C@H]2[C@@H]3CCCC[C@H]3C[C@H]3C(=O)O[C@H](C)[C@@H]23)n1` (racemic), the IC50 in data set [1] came to 550 nM.

In data set [1], `C[C@H]1OC(=O)[C@@H]2C[C@@H]3CCCC[C@H]3[C@H](/C=C/c3ccc(-c4ccccc4)cn3)[C@H]12` showed a 50% inhibitory concentration (IC50) of 27 nM. In addition, the exposure (AUC) at 4 h in data set [2] amounted to 0.917 µM·h. The same compound had a peak concentration (Cmax) in [3] of 453 nM.

`C[C@H]1OC(=O)[C@@H]2C[C@@H]3CCCC[C@H]3[C@H](/C=C/c3ccc(-c4ccc(Cl)cc4)cn3)[C@H]12` (racemic) came in with an IC50 in data set [1] of 1000 nM.

With `C[C@H]1OC(=O)[C@@H]2C[C@@H]3CCCC[C@H]3[C@H](/C=C/c3ccc(-c4cccc(C(F)(F)F)c4)cn3)[C@H]12`, the bioavailability is 50% in data set [7] and 30% in data set [8]. In addition, the half-life in data set [9] is 3.2 h; in [10], 12.4 h. The results for the Cmax in data set [11] and in data set [3] were 1160 nM and 2300 nM, respectively. Further, the exposure (AUC) at 4 h in data set [2] amounted to 6.12 µM·h.

`C[C@H]1OC(=O)[C@@H]2C[C@@H]3CCCC[C@H]3[C@H](/C=C/c3ccc(-c4ccccc4C(F)(F)F)cn3)[C@H]12` returned a concentration for half-maximal inhibition (IC50) in data set [1] of 46 nM. Also, the AUC at 4 h in [2] is 2.35 µM·h. For the same compound, the concentration in data set [3] peaked (Cmax) at 1000 nM.

In turn, `CCOC(=O)c1ccccc1-c1ccc(/C=C/[C@H]2[C@@H]3CCCC[C@H]3C[C@H]3C(=O)O[C@H](C)[C@@H]23)nc1` registered an IC50 in [1] of 44 nM.

For `COc1ccc(/C=C/[C@H]2[C@@H]3CCCC[C@H]3C[C@H]3C(=O)O[C@H](C)[C@@H]23)nc1` (racemic), the IC50 in [1] was determined as 325 nM.

`C[C@H]1OC(=O)[C@@H]2C[C@@H]3CCCC[C@H]3[C@H](/C=C/c3ccc(-c4ccc(F)cc4)cn3)[C@H]12` (racemic) registered a concentration for half-maximal inhibition (IC50) in [1] of 467 nM.

Compound `COCc1cccc(/C=C/[C@H]2[C@@H]3CCCC[C@H]3C[C@H]3C(=O)O[C@H](C)[C@@H]23)n1` (racemic) displayed an IC50 in [1] of 850 nM.

With `C[C@H]1OC(=O)[C@@H]2C[C@@H]3CCCC[C@H]3[C@H](/C=C/c3cccc(CO)n3)[C@H]12` (racemic), the IC50 in data set [1] was 1500 nM.

`Cc1ccnc(/C=C/[C@H]2[C@@H]3CCCC[C@H]3C[C@H]3C(=O)O[C@H](C)[C@@H]23)c1` (racemic) had an IC50 in data set [1] of 2100 nM.

For `C[C@H]1OC(=O)[C@@H]2C[C@@H]3CCCC[C@H]3[C@H](/C=C/c3ccc(-c4cccc(C#N)c4)cn3)[C@H]12`, the IC50 in [1] turned out to be 25 nM.

In turn, `C[C@H]1OC(=O)[C@@H]2C[C@@H]3CCCC[C@H]3[C@H](/C=C/c3ccc(-c4ccccc4Cl)cn3)[C@H]12` showed an IC50 in [1] of 26 nM. Besides, the exposure (AUC) at 4 h in data set [2] amounted to 4.29 µM·h. In addition, the Cmax in data set [3] came out at 1780 nM.

In [1], `COc1ccc(-c2ccc(/C=C/[C@H]3[C@@H]4CCCC[C@H]4C[C@H]4C(=O)O[C@H](C)[C@@H]34)nc2)cc1` (racemic) registered a 50% inhibitory concentration (IC50) of 204 nM.

`C[C@H]1OC(=O)[C@@H]2C[C@@H]3CCCC[C@H]3[C@H](/C=C/c3ccc(-c4cccc(Br)c4)cn3)[C@H]12` registered a half-maximal inhibitory concentration (IC50) in data set [1] of 25 nM.

For `C[C@H]1OC(=O)[C@@H]2C[C@@H]3CCCC[C@H]3[C@H](/C=C/c3cccc(-c4ccccc4)n3)[C@H]12` (racemic), the IC50 entry in data set [4] was “Not Active”.

As to `C[C@H]1OC(=O)[C@@H]2C[C@@H]3CCCC[C@H]3[C@H](/C=C/c3cccc(Cc4ccccc4)n3)[C@H]12` (racemic), the IC50 in [1] was 900 nM.

`CCCc1cccc(/C=C/[C@H]2[C@@H]3CCCC[C@H]3C[C@H]3C(=O)O[C@H](C)[C@@H]23)n1` (racemic): the midpoint of inhibition in data set [1], the IC50, lay at 250 nM.
